Assay results taken from patent US20260373248A1, “DEGRADABLE PEPTOIDS” (Medici Therapeutics, Inc., priority 2023, published 2026).
Starred links: 1 amine or outer side, 2 acyl side, 3 side chain; linkers in the order of their positions; H or OH if unused. Non-standard residues stand in square brackets, D forms with d. Residues, ends and D or L forms follow the SMILES beside them. Gly(N-(3-decanoyloxypropyl)) = CCCCCCCCCC(=O)OCCCNCC(=O)O; N(3-lauroyloxypropyl)Gly = CCCCCCCCCCCC(=O)OCCCNCC(=O)O; N(2-decanoyloxyethyl)Gly = CCCCCCCCCC(=O)OCCNCC(=O)O; N(2-ethylhexyl)Gly = CCCCC(CC)CNCC(=O)O; X2 = CCCCCCC(CCCC)CN(CC(=O)[*:2])[*:1]; N(CH(CH2OH)2)Gly = O=C(O)CNC(CO)CO; NDecylGly = CCCCCCCCCCNCC(=O)O; NHexGly = CCCCCCNCC(=O)O

How the values were obtained:
firefly luciferase = experiment: In vivo firefly luciferase expression after intravenous injection of fLuc mRNA delivery vehicles (IVIS imaging); design: species or system female Balb/c mice; conditions: for Total Flux (luciferase expression): fLuc mRNA, intravenous, Balb/c mice; for Total Flux: mice, 2.5 ug fLuc mRNA intravenously, 6 hours post-injection
Method in brief: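 Female Balb/c mice (6-8 weeks) given 2.5 ug fLuc mRNA in Nutshells IV. At 6 hours, IP D-luciferin (30 mg/mL, 10 μL/g) under isoflurane; IVIS imaging 10 minutes later, then harvested organs imaged ex vivo. Read-out: total photon flux in regions of interest.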

[1] = Delivery vehicle size and polydispersity by dynamic light scattering; format: physicochemical
Method in brief: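 LNPs made by microfluidic mixing of ethanolic peptoid/DSPC/cholesterol/DMG-PEG2000 (20:1.79:7.16:1.84 by weight) with mRNA in 10 mM citrate pH 5.0 at 1:3 by volume, then dialyzed overnight at 4 °C against tris-sucrose pH 7.4. Size and PDI read by dynamic light scattering in PBS.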

hEPO = experiment: Quantification of hEPO in serum after IV injection of mRNA (Human EPO ELISA); format: in vivo; conditions: Balb/c mice, 2.5 μg mRNA IV, serum after 6 hours
Method in brief: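 Balb/c mice received 2.5 μg mRNA encoding human EPO by IV injection; serum was collected after 6 hours. hEPO was measured by sandwich ELISA (biotin-conjugate, streptavidin-HRP, TMB, A450) against kit standards (mIU/mL) and an external standard (ng/mL), with values interpolated and corrected for dilution.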

luciferase = experiment: Luciferase expression after local (intramuscular or subcutaneous) administration of mRNA; format: in vivo; conditions: mRNA 0.01 mpk, 6 hours; for IM Flux: intramuscular; for SC Flux: subcutaneous
Method in brief: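 Female Balb/c mice (6-8 weeks) received fLuc mRNA in aminolipidated peptoid Nutshells at 0.01 mpk subcutaneously or intramuscularly, or 0.1 mpk intratumorally. At 6 hours, anesthetized mice were given D-luciferin IP and imaged 10 minutes later; harvested organs were also imaged and total photon flux quantified in regions of interest.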

[2] = Peptoid quantity remaining in liver by HPLC-TOF mass spectrometry; format: in vivo; conditions: liver homogenate
Method: Peptoid quantity in liver was determined via high-performance liquid chromatography coupled with time-of-flight mass spectrometer (HPLC-TOF). The entire liver was weighed, and then two sections were isolated using a provided biopsy punch for liver homogenization. Liver homogenate sample was prepared by resuspending 20 mg liver tissue in 400 μL extraction solvent (IPA/MeOH=8/2) containing an internal standard (400 pg/μL) followed by bead homogenization (45 sec per cycle for 3-4 cycles). Homogenized samples were centrifuged at 12,000 rpm for 8 min at 6 °C. The resulting supernatant was collected and stored at −20 °C for further LC analysis. 5 μL of the resulting supernatant sample from solid or liquid tissue was injected into a BEH C8 column on an Agilent 1290 Infinity II liquid chromatograph coupled with an Agilent 6230 LC-TOF system. Concentrations of peptoids were determined by a linear calibration curve (linear range:0.2-50 μg/g for solid tissue). Standard calibration curve solutions were prepared by spiking untreated liver followed by homogenization and centrifugation.

mRNA = mRNA encapsulation (modified Quant-iT RiboGreen assay); format: physicochemical; conditions: for mean percent encapsulation of RNA: RiboGreen, without vs with Triton X-100; for % Encapsulation: mRNA
Method in brief: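 Peptoid nanoparticles were incubated with Triton X-100 for 10 min to release entrapped mRNA, then mixed with RiboGreen reagent and read by fluorescence (ex 485 nm/em 530 nm). Percent encapsulation was derived from the ratio of fluorescence without versus with Triton X-100.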

[3] = DLS in PBS, peptoid:DSPC:Cholesterol:DMG-PEG2000 weight ratio 20:1.79:7.16:1.84, mRNA

SMILES	PDI [1, 3]	Particle Size [1, 3] [nm]	Particle Size ([1]; formulation recipe O5) [nm]	% of injected dose remaining in liver [2] [%]	mean percent encapsulation of RNA (mRNA) [%]	% Encapsulation (mRNA; formulation recipe O5) [%]	Total Flux (luciferase expression) (firefly luciferase; formulation recipe O5) [p/s]	Total Flux (firefly luciferase) [p/s]	hEPO (hEPO) [ng/mL]	IM Flux (luciferase) [p/s]	SC Flux (luciferase) [p/s]	other results
CCCCCCCCCCCC(=O)OCCCN(CC(=O)N(CC(=O)N(CC(=O)N(CCCOC(=O)CCCCCCCCCCC)CC(=O)N(CC(=O)N(CC(N)=O)CC(CC)CCCC)CC(CC)CCCC)CC(CC)CCCC)CC(CC)CCCC)C(=O)CNC(CO)CO (stereo not shown) [Compound 51] (H-[N(CH(CH2OH)2)Gly][N(3-lauroyloxypropyl)Gly][N(2-ethylhexyl)Gly][N(2-ethylhexyl)Gly][N(3-lauroyloxypropyl)Gly][N(2-ethylhexyl)Gly][N(2-ethylhexyl)Gly]-NH2)	0.128	61.4	58.4	16.40	80.3	91.9	1.50E+09	4.42E+09	591	1.84E+08	2.26E+08	Total Flux (luciferase expression) (firefly luciferase; formulation recipe D22): 4.42E+09 p/s; Total Flux (luciferase expression) (firefly luciferase; formulation recipe O6): 1.27E+09 p/s; Particle Size ([1]; formulation recipe D22): 61.4 nm; Particle Size ([1]; formulation recipe O6): 56.7 nm; % Encapsulation (mRNA; formulation recipe D22): 80.3%; % Encapsulation (mRNA; formulation recipe O6): 91.8%
CCCCCCCCCC(=O)OCCCN(CC(N)=O)C(=O)CN(CC(CC)CCCC)C(=O)CN(CCCOC(=O)CCCCCCCCC)C(=O)CN(CCCOC(=O)CCCCCCCCC)C(=O)CN(CC(CC)CCCC)C(=O)CN(CCCOC(=O)CCCCCCCCC)C(=O)CNC(CO)CO (stereo not shown) [Compound 53] (H-[N(CH(CH2OH)2)Gly][Gly(N-(3-decanoyloxypropyl))][N(2-ethylhexyl)Gly][Gly(N-(3-decanoyloxypropyl))][Gly(N-(3-decanoyloxypropyl))][N(2-ethylhexyl)Gly][Gly(N-(3-decanoyloxypropyl))]-NH2)	0.153	88.5		0.13	36.0			4.46E+08	71.6	5.34E+08	2.78E+08	
CCCCCCCCCCCC(=O)OCCCN(CC(=O)N(CC(N)=O)CC(CC)CCCC)C(=O)CN(CCCCCC)C(=O)CN(CC(CC)CCCC)C(=O)CN(CCCOC(=O)CCCCCCCCCCC)C(=O)CN(CCCCCC)C(=O)CNC(CO)CO (stereo not shown) [Compound 54] (H-[N(CH(CH2OH)2)Gly][NHexGly][N(3-lauroyloxypropyl)Gly][N(2-ethylhexyl)Gly][NHexGly][N(3-lauroyloxypropyl)Gly][N(2-ethylhexyl)Gly]-NH2)	0.141	126.1		8.64	33.5			3.53E+08	37.4	1.52E+07	2.18E+07	
CCCCCCCCCC(=O)OCCCN(CC(=O)N(CC(=O)N(CCCCCC)CC(=O)N(CCCOC(=O)CCCCCCCCC)CC(=O)N(CC(=O)N(CCCCCC)CC(N)=O)CC(CC)CCCC)CC(CC)CCCC)C(=O)CNC(CO)CO (stereo not shown) [Compound 55] (H-[N(CH(CH2OH)2)Gly][Gly(N-(3-decanoyloxypropyl))][N(2-ethylhexyl)Gly][NHexGly][Gly(N-(3-decanoyloxypropyl))][N(2-ethylhexyl)Gly][NHexGly]-NH2)	0.139	90.2		4.59	26.3			6.22E+08	63.1	5.29E+07	9.41E+07	

Now from value to compound, other results behind:

PDI [1, 3]	Particle Size [1, 3] [nm]	Particle Size ([1]; formulation recipe O5) [nm]	% of injected dose remaining in liver [2] [%]	mean percent encapsulation of RNA (mRNA) [%]	% Encapsulation (mRNA; formulation recipe O5) [%]	SMILES	Total Flux (luciferase expression) (firefly luciferase; formulation recipe O5) [p/s]	Total Flux (firefly luciferase) [p/s]	hEPO (hEPO) [ng/mL]	IM Flux (luciferase) [p/s]	SC Flux (luciferase) [p/s]	other results
0.234	102.4	62.4	24.83	23.8	89.6	CCCCCCCCCC(=O)OCCN(CC(N)=O)C(=O)CN(CC(CC)CCCC)C(=O)CN(CCOC(=O)CCCCCCCCC)C(=O)CN(CCOC(=O)CCCCCCCCC)C(=O)CN(CC(CC)CCCC)C(=O)CN(CCOC(=O)CCCCCCCCC)C(=O)CNC(CO)CO (stereo not shown) [Compound 56] (H-[N(CH(CH2OH)2)Gly][N(2-decanoyloxyethyl)Gly][N(2-ethylhexyl)Gly][N(2-decanoyloxyethyl)Gly][N(2-decanoyloxyethyl)Gly][N(2-ethylhexyl)Gly][N(2-decanoyloxyethyl)Gly]-NH2)	6.97E+08	2.42E+09	551	5.78E+07	8.24E+07	Total Flux (luciferase expression) (firefly luciferase; formulation recipe O3): 5.66E+08 p/s; Particle Size ([1]; formulation recipe O3): 57.9 nm; % Encapsulation (mRNA; formulation recipe O3): 86.9%
0.159	70.4	56.3	−1.37	78.1	92.8	CCCCCCCCCCN(CC(=O)N(CC(=O)N(CCCOC(=O)CCCCCCCCC)CC(N)=O)CC(CC)CCCC)C(=O)CN(CC(CC)CCCC)C(=O)CN(CCCOC(=O)CCCCCCCCC)C(=O)CN(CC(CC)CCCC)C(=O)CNC(CO)CO (stereo not shown) [Compound 58] (H-[N(CH(CH2OH)2)Gly][N(2-ethylhexyl)Gly][Gly(N-(3-decanoyloxypropyl))][N(2-ethylhexyl)Gly][NDecylGly][N(2-ethylhexyl)Gly][Gly(N-(3-decanoyloxypropyl))]-NH2)	5.84E+08	3.94E+09	386	5.53E+08	1.99E+07	Total Flux (luciferase expression) (firefly luciferase; formulation recipe D22): 3.94E+09 p/s; Total Flux (luciferase expression) (firefly luciferase; formulation recipe O8): 1.02E+09 p/s; Particle Size ([1]; formulation recipe D22): 70.4 nm; Particle Size ([1]; formulation recipe O8): 57.5 nm; % Encapsulation (mRNA; formulation recipe D22): 78.1%; % Encapsulation (mRNA; formulation recipe O8): 92.9%
0.106	79.5		−1.85	95.2		CCCCCCCCCCCC(=O)OCCCN(CC(N)=O)C(=O)CN(CC(CC)CCCC)C(=O)CN(CCCCCCCCCC)C(=O)CN(CC(CC)CCCC)C(=O)CN(CCCOC(=O)CCCCCCCCCCC)C(=O)CN(CC(CC)CCCC)C(=O)CNC(CO)CO (stereo not shown) [Compound 59] (H-[N(CH(CH2OH)2)Gly][N(2-ethylhexyl)Gly][N(3-lauroyloxypropyl)Gly][N(2-ethylhexyl)Gly][NDecylGly][N(2-ethylhexyl)Gly][N(3-lauroyloxypropyl)Gly]-NH2)		6.47E+08	112	6.35E+07	8.71E+08	
0.081	75.4		13.39	95.1		CCCCCCCCCC(=O)OCCCN(CC(=O)N(CC(=O)N(CC(=O)N(CCCOC(=O)CCCCCCCCC)CC(=O)N(CC(N)=O)CC(CCCC)CCCCCC)CC(CC)CCCC)CC(CCCC)CCCCCC)C(=O)CN(CC(CC)CCCC)C(=O)CNC(CO)CO (stereo not shown) [Compound 61] (H-[N(CH(CH2OH)2)Gly][N(2-ethylhexyl)Gly][Gly(N-(3-decanoyloxypropyl))][X2][N(2-ethylhexyl)Gly][Gly(N-(3-decanoyloxypropyl))][X2]-NH2)		1.96E+09	428	1.45E+08	1.99E+08	
